In patent US8329141B2, “Locoregional internal radionuclide ablation of abnormal tissues” (Board of Regents, The University of Texas System, priority 2004, dated 2012):

Test: In vivo local sequestration at the injection site by serial scintigrams (intramuscular or intratumoral injection)
Parameters: species or system Fischer rats
Procedure: To further study the localization of unsealed radiopharmaceuticals after injection, in vivo imaging studies were carried out comparing ^111In DTPA (In-DTPA) (negative control) and Indium-111-Iron Macroaggregate (^111In-IMA) (positive control) to ^111In—Cl. ^111In emits gamma rays that can be detected using a gamma camera. ^111In-IMA was generated according to methods disclosed in U.S. Ser. No. 10/724,027, incorporated herein by reference. Each radiopharmaceutical was administered by intramuscular injection into the thigh muscle of Fischer rats which weighed approximately 200 grams. Two different doses of ^111In—Cl were administered to the rats, 0.4 and 0.8 mCi in 0.2 ml saline. Distribution of the ^111In—Cl was determined through serial scintigrams. […] In comparison, when ^111In-IMA was administered to rats, consistent retention (84%) of the ^111In-IMA was found 70 hours after administration (FIG. 8). Persistent intramuscular localization of ^111In—Cl was also found in rats for both dose levels of ^111In—Cl, with over 50% of the injected ^111In—Cl remaining in the injection site after three days.
To investigate whether the addition of free iron to radionuclides would increase the locoregional retention of various radionuclides, admixtures of ^67Ga-citrate, YCl3, or ^111In—Cl, were prepared with FeCl3.6H2O at 1-5 mg Fe/ml. Each radionuclide combination/admixture was administered either by intramuscular (IM) injection into the thigh muscle of the left leg (0.1-1.0 mCi) or by intratumoral (IT) injection into a tumor in the right leg (0.4-5.0 mCi) of Fischer rats. Distribution of the radionuclide was determined through serial scintigrams. Whole body images were acquired with a Siemens M-CAM camera using respective photo peaks of Ga-67, Tl-201 (for Y-90), or In-111, and 15-20% windows in photo energy. The typical imaging time was 0.5 to 5 minutes. A respective standard was present in the field of view (0.1-0.5 mCi), and used for image quantification by comparing images with the standard and normalizing the initial injection time as 100%. The Fe content in each combination/admixture was 1 mg in the total injectate.

## [Cl][90Y]([Cl])[Cl] [YCl3, Yttrium-90 chloride]
Admixture with FeCl3.6H2O, intramuscular or intratumoral injection
  retention time with free iron: Increase in the retention time
Intramuscular injection in rats, without free iron, FIG. 15
  time over which cleared from the injection site: approximately 20 hours
Intramuscular injection, without free iron
  retention in the injection site: not locally sequestered
